{"source": "patent US20120039813A1", "about": "“INTRINSICALLY COLORED, LUMINESCENT SILK FIBROIN AND A METHOD OF PRODUCING THE SAME” (priority 2009, published 2012)", "key": {"silkworm [1]": {"tested_on": "silkworm", "assay": "Uptake of dyes into the silkworm and the silk fibroin after feeding dye-modified feed", "type": "in vivo", "details": "for Uptake of dye in worm / Uptake of dye in fibroin: dye fed to silkworm in modified feed; for Uptake of dye in fibroin: silk fibroin", "text": "The modified feed was then fed to silkworms starting on the third day of fifth instar. The silk gland, obtained through dissection, also absorbed the dye and became colored. At day 8-9 of fifth instar, the silkworms started producing intrinsically colored and fluorescent silk cocoon as shown in FIG. 3. […]"}, "physchem": {"assay": "physchem", "text": "(§1) FIG. 12 depicts the quantity of various dyes in sericin and fibroin per gram of raw silk as a function of their n-octanol/water partition coefficient (log p).\n(§2) FIG. 12 summarizes the amounts of various dyes distributed in silk's fibroin and sericin as a function of log P, a measure of hydrophobicity."}, "silkworm [2]": {"tested_on": "silkworm", "assay": "Quantity of various dyes in sericin, fibroin and gland content of dye-fed silkworms", "text": "as §1, §2"}, "[3]": {"details": "other dye molecules apart from the rhodamine series, feeding method"}}, "note": "Entries after “also recorded” stand apart in the source; their conditions may differ."}
{"compound": "CCN(CC)c1ccc2c(c1)Oc1cc(N(CC)CC)ccc1C21OC(=O)c2ccccc21", "note": "[Rhodamine B base, rhodamine B base]", "values": [{"measurement": "Uptake of dye in worm", "setting": "silkworm [1]", "result": "yes"}, {"measurement": "Uptake of dye in fibroin", "setting": "silkworm [1]", "result": "yes"}]}
{"compound": "O=C1OC2(c3ccc(O)cc3Oc3cc(O)ccc32)c2ccccc21", "note": "[Fluorescein, fluorescein]", "values": [{"measurement": "Uptake into silk gland and silk", "setting": "silkworm [1]; [3]", "result": "did not display significant uptake"}, {"measurement": "logP", "setting": "physchem", "result": -0.79}, {"measurement": "Amount of dye present in silk (sericin and fibroin) and silkworm", "setting": "silkworm [2]; in vivo", "result": "negligible presence in silk and in silkworm"}]}
{"compound": "rhodamine 116", "values": [{"measurement": "log P (n-octanol/water partition coefficient)", "setting": "physchem; measure of hydrophobicity", "result": 0.64}]}
{"compound": "O=C(O)c1ccccc1C1=c2cc3c4c(c2Oc2c1cc1c5c2CCCN5CCC1)CCC[N+]=4CCC3.[Cl-]", "note": "[Rhodamine 101, rhodamine 101]", "values": [{"measurement": "Uptake of dye in worm", "setting": "silkworm [1]", "result": "yes"}, {"measurement": "Uptake of dye in fibroin", "setting": "silkworm [1]", "result": "yes"}, {"measurement": "log P (n-octanol/water partition coefficient)", "setting": "physchem", "result": 2.19}, {"measurement": "Amount of dye present in silk (sericin and fibroin) and silkworm", "setting": "silkworm [2]; FIG. 12, result in words", "result": "much higher concentration"}, {"measurement": "Distribution of dye between silk sericin and fibroin", "setting": "silkworm [2]; FIG. 12, result in words", "result": "majority residing in silk fibroin rather than sericin"}]}
{"compound": "Cl.N=c1ccc2c(-c3ccccc3C(=O)O)c3ccc(N)cc3oc-2c1", "note": "[Rhodamine 110, rhodamine 110]", "values": [{"measurement": "log P (n-octanol/water partition coefficient)", "setting": "physchem", "result": 1.17}, {"measurement": "Amount of dye present in silk (sericin and fibroin) and silkworm", "setting": "silkworm [2]; FIG. 12, result in words", "result": "substantial amounts in both sericin and fibroin; also recorded: lower uptake"}]}
{"compound": "CN(C)c1ccc2cc3ccc(N(C)C)cc3nc2c1", "note": "[Acridine orange, acridine orange]", "values": [{"measurement": "Uptake into silk gland and silk", "setting": "silkworm [1]; [3]", "result": "efficient uptake"}, {"measurement": "logP", "setting": "physchem", "result": 1.8}, {"measurement": "Amount of dye present in silk (sericin and fibroin) and silkworm", "setting": "silkworm [2]; in vivo", "result": "very low concentration in silk"}, {"measurement": "Concentration in gland content", "setting": "silkworm [2]; in vivo", "result": "very low"}]}
{"compound": "O=S1(=O)OC(c2cc(Br)c(O)c(Br)c2)(c2cc(Br)c(O)c(Br)c2)c2ccccc21", "note": "[Bromophenol blue]", "values": [{"measurement": "Uptake into silk gland and silk", "setting": "silkworm [1]; [3]", "result": "did not display significant uptake"}]}
{"compound": "rhodamine 123", "values": [{"measurement": "Uptake of dye in worm", "setting": "silkworm [1]", "result": "no"}, {"measurement": "Uptake of dye in fibroin", "setting": "silkworm [1]", "result": "no"}]}
{"compound": "CCN(CC)c1ccc2c(-c3ccccc3C(=O)O)c3ccc(=[N+](CC)CC)cc-3oc2c1.[Cl-]", "note": "[Rhodamine B, rhodamine B]", "values": [{"measurement": "Uptake of dye in worm", "setting": "silkworm [1]", "result": "yes"}, {"measurement": "Uptake of dye in fibroin", "setting": "silkworm [1]", "result": "yes"}, {"measurement": "log P (n-octanol/water partition coefficient)", "setting": "physchem; measure of hydrophobicity", "result": 2.43}, {"measurement": "Amount of dye present in silk (sericin and fibroin) and silkworm", "setting": "silkworm [2]; FIG. 12, result in words", "result": "much higher concentration"}, {"measurement": "Distribution of dye between silk sericin and fibroin", "setting": "silkworm [2]; FIG. 12, result in words", "result": "majority residing in silk fibroin rather than sericin"}, {"measurement": "Concentration in gland content", "setting": "silkworm [2]; in vivo", "result": "~1000", "unit": "µM"}]}
{"compound": "Alcian blue", "values": [{"measurement": "Uptake into silk gland and silk", "setting": "silkworm [1]; in vivo", "result": "did not display significant uptake"}]}
{"compound": "O=S(=O)([O-])c1cc(S(=O)(=O)O)ccc1C1=c2cc3c4c(c2Oc2c1cc1c5c2CCCN5CCC1)CCC[N+]=4CCC3", "note": "[sulforhodamine 101]", "values": [{"measurement": "log P (n-octanol/water partition coefficient)", "setting": "physchem", "result": "−0.69"}, {"measurement": "Amount of dye present in silk (sericin and fibroin) and silkworm", "setting": "silkworm [2]; in vivo", "result": "negligible presence in silk and in silkworm"}]}
